# Results taken from patent US9994554B2, “Barbiturate and thiobarbiturate compounds for use in cancer therapy” (NUHOPE, LLC, priority 2011, dated 2018).
# Test system: U87-MG cells
# Assay: U87-MG resazurin cell assay (Example 13)
# Type: cell-based
# Details: Homo sapiens, U-87 MG; U87-MG, 5 days (120 hrs) incubation; read-out: Activity Score (Mean pXC50) (converted)
# Protocol: U87-MG cells were obtained from the ATCC, LGC Standards (#HTB-14). The cells were screened for mycoplasma (Mycoplasma Experience) and maintained in Biowhittaker Alpha MEM (Lonza #BE02-002F+10% dialyzed US FBS serum (Invitrogen #26400-044), 1% Penstrep (Gibco #15140-122).
# Compounds to be tested were transferred into column 1 of a hit plate (96-well PPV Greiner #651201). 20 ul of DMSO was added to columns 2 to 11. The top concentration was 10 mM.
# Serial dilution, ten-point one in three dilution curves were created using Perkin Elmer Janus (20 ul clear Robopack disposable tips #6000677 used).
# 2 ul of each of the compounds was transferred by pre-dispensing into black, clear bottom 96-well CellBIND Corning plates (Fisher #DPS-184-030R) using Platemate 2×2 (ThermoFisher Darts #5506).
# 200 μl of U87-MG cells were added to columns 1 to 11 at a density of 1000 cells per ml, and media only was dispensed into control column 12 using Wellmate (Small bore tubing set #201-30002).
# After 5 days (120 hrs) incubation at 37° C. under 5% CO2 in a humidified incubator, the assay was “stopped” by addition of Resazurin sodium salt at 0.5 mM final concentration (Sigma R7017). The plates were incubated for a further 4 hrs before resorufin readout was taken from a Perkin Elmer EnVision, 550 nm excitation (photo550, Barcode 312), 580 nm emission (M580, Barcode 233), Top Mirror BODIPY (D555, Barcode 405).
row,Compound,IC50 [µM]
1,O=C1NC(=O)C(=C/C=C/c2ccc(Cl)cc2Cl)C(=O)N1 [DDD00175271],1 to 10
2,CN1C(=O)C(=Cc2ccco2)C(=O)N(C)C1=O [DDD00175280],> 100
3,CCN1C(=O)C(=C/C=C/c2ccc(Cl)cc2)C(=O)N(CC)C1=S [DDD00175281],31.6 to 100
4,CN1C(=O)C(=C/C=C/c2ccccc2)C(=O)N(C)C1=O [DDD00175285],1 to 10
5,O=C1NC(=O)C(=C/C=C/c2ccc(Cl)cc2)C(=O)N1 [DDD00175286],≤ 1
6,CCN1C(=O)C(=C/C=C/c2cccc(Cl)c2)C(=O)N(CC)C1=S [DDD00175293],31.6 to 100
7,CCN1C(=O)NC(=O)/C(=C\C=C\c2cccc(Cl)c2)C1=O [DDD00175297],≤ 1
8,O=C1NC(=O)C(=C/C=C/c2cccc(Cl)c2)C(=O)N1 [DDD00175302],≤ 1
9,CCN1C(=O)NC(=O)/C(=C2\C=C(c3ccccc3)CCC2)C1=O [DDD00175332],> 100
10,CCN1C(=O)C(=C2C=C(c3ccccc3)CCC2)C(=O)N(CC)C1=S [DDD00175338],> 100
11,O=C1NC(=O)C(=C/C=C/c2ccccc2Cl)C(=O)N1 [DDD00175339],1 to 10
12,CCN1C(=O)/C(=C\C=C\c2ccccc2)C(=O)N(C2CCOCC2)C1=O [DDD00175789],1 to 10
13,O=C1NC(=O)C(=Cc2c[nH]c3ccccc23)C(=O)N1 [DDD00175790],> 100
14,CN1C(=O)C(=Cc2c[nH]c3ccccc23)C(=O)N(C)C1=O [DDD00175791],> 100
15,CCN1C(=O)/C(=C\C=C\c2ccco2)C(=O)N(C2CCOCC2)C1=O [DDD00175792],10 to 31.6
16,COc1ccc(/C=C/C=C2C(=O)N(C)C(=O)N(C)C2=O)cc1 [DDD00175794],1 to 10
17,CN1C(=O)C(=C/C=C/c2ccc(N(C)C)cc2)C(=O)N(C)C1=O [DDD00175795],31.6 to 100
18,Cc1ccc(/C=C/C=C2C(=O)NC(=O)NC2=O)cc1 [DDD00175796],1 to 10
19,CCN1C(=O)NC(=O)/C(=C\C=C\c2ccc(OC)cc2)C1=O [DDD00175797],1 to 10
20,Cc1ccc(/C=C/C=C2C(=O)NC(=S)NC2=O)cc1 [DDD00175798],1 to 10
21,COc1ccc(/C=C/C=C2C(=O)NC(=O)NC2=O)cc1 [DDD00175799],1 to 10
22,CCN1C(=O)C(=C/C=C/c2ccc(OC)cc2)C(=O)N(CC)C1=S [DDD00175800],31.6 to 100

row,Compound,IC50 [µM]
1,CCN1C(=O)NC(=O)/C(=C\C=C\c2ccc(C)cc2)C1=O [DDD00175801],1 to 10
2,N#Cc1ccc(/C=C/C=C2C(=O)NC(=O)NC2=O)cc1 [DDD00175802],10 to 31.6
3,CN(C)c1ccc(/C=C/C=C2C(=O)NC(=O)NC2=O)cc1 [DDD00175803],10 to 31.6
4,CCN1C(=O)NC(=O)/C(=C\C=C\c2ccc(N(C)C)cc2)C1=O [DDD00175804],1 to 10
5,COc1ccc(/C=C/C=C2C(=O)NC(=S)NC2=O)cc1 [DDD00175805],1 to 10
6,N#Cc1ccc(/C=C/C=C2C(=O)NC(=S)NC2=O)cc1 [DDD00175806],31.6 to 100
7,CCN1C(=O)C(=C/C=C/c2ccc(C)cc2)C(=O)N(CC)C1=S [DDD00175807],31.6 to 100
8,O=C1NC(=O)C(=C/C=C/c2ccccc2F)C(=O)N1 [DDD00175808],1 to 10
9,Cc1ccccc1/C=C/C=C1C(=O)NC(=O)NC1=O [DDD00175809],1 to 10
10,CCN1C(=O)NC(=O)/C(=C\C=C\c2ccccc2F)C1=O [DDD00175810],1 to 10
11,CN1C(=O)C(=C/C=C/c2ccccc2F)C(=O)N(C)C1=O [DDD00175811],1 to 10
12,CCN1C(=O)NC(=O)/C(=C\C=C\c2ccccc2C)C1=O [DDD00175813],1 to 10
13,CCN1C(=O)C(=C/C=C/c2ccccc2C)C(=O)N(CC)C1=S [DDD00175816],10 to 31.6
14,CCN1C(=O)NC(=O)/C(=C\C=C\c2ccccc2OC)C1=O [DDD00175817],1 to 10
15,COc1ccccc1/C=C/C=C1C(=O)N(C)C(=O)N(C)C1=O [DDD00175818],1 to 10
16,COc1ccccc1/C=C/C=C1C(=O)NC(=S)NC1=O [DDD00175819],1 to 10
17,O=C1NC(=O)C(=Cc2ccncc2)C(=O)N1 [DDD00175820],> 100
18,O=C1NC(=O)C(=Cc2ccccc2F)C(=O)N1 [DDD00175821],> 100
19,O=C1NC(=O)C(=Cc2cccc(F)c2)C(=O)N1 [DDD00175822],> 100
20,O=C1NC(=O)C(=Cc2cccc(Cl)c2)C(=O)N1 [DDD00175823],> 100
21,O=C1NC(=O)C(Cc2ccccc2)C(=O)N1 [DDD00175824],> 100
22,O=C1NC(=O)C(=CC2CCCCC2)C(=O)N1 [DDD00175825],> 100

row,Compound,IC50 [µM]
1,COc1ccc2c(c1)OCC(C=C1C(=O)N(C)C(=O)N(C)C1=O)=C2 [DDD00175826],31.6 to 100
2,COc1cccc(C=C2C(=O)NC(=O)NC2=O)c1 [DDD00175827],> 100
3,O=C1NC(=O)C(=Cc2ccccc2)C(=O)N1 [DDD00175828],> 100
4,CN1C(=O)C(=CC2=Cc3cc(Cl)ccc3OC2)C(=O)N(C)C1=O [DDD00175830],31.6 to 100
5,O=C1NC(=O)C(=Cc2ccc(F)cc2)C(=O)N1 [DDD00175831],> 100
6,COc1ccccc1/C=C/C=C1C(=O)NC(=O)NC1=O [DDD00175832],1 to 10
7,O=C1NC(=O)C(=Cc2cccnc2)C(=O)N1 [DDD00175833],> 100
8,O=C1NC(=O)C(=C/C=C/c2ccccc2[N+](=O)[O-])C(=O)N1 [DDD00175834],1 to 10
9,O=C1NC(=O)C(=CC2=Cc3ccccc3OC2)C(=O)N1 [DDD00175835],31.6 to 100
10,O=C1NC(=O)C(=Cc2ccc(Cl)c(Cl)c2)C(=O)N1 [DDD00175836],> 100
11,O=C1NC(=O)C(=Cc2ccccn2)C(=O)N1 [DDD00175837],> 100
12,COc1ccc(C=C2C(=O)NC(=O)NC2=O)cc1 [DDD00175838],> 100
13,CCN1C(=O)C(=C/C=C/c2ccc(F)cc2)C(=O)N(CC)C1=S [DDD00175839],31.6 to 100
14,CCN1C(=O)/C(=C/C=C/c2ccc(F)cc2)C(=O)NC1=S [DDD00175840],31.6 to 100
15,CCN1C(=O)NC(=O)/C(=C\C=C\c2ccc(F)cc2)C1=O [DDD00175841],1 to 10
16,O=C1NC(=O)C(=C/C=C/c2ccc(F)cc2)C(=O)N1 [DDD00175842],1 to 10
17,Cc1ccccc1/C=C/C=C1C(=O)NC(=S)NC1=O [DDD00197329],1 to 10
18,CCN1C(=O)/C(=C/C=C/c2ccccc2C)C(=O)NC1=S [DDD00197330],1 to 10
19,O=C1NC(=O)C(=C/C=C/c2c(F)cccc2F)C(=O)N1 [DDD00197331],1 to 10
20,O=C1NC(=O)C(=C/C=C/c2cccc(F)c2)C(=O)N1 [DDD00197332],1 to 10
21,O=C1NC(=O)C(=C/C=C/c2cccnc2)C(=O)N1 [DDD00197336],10 to 31.6
22,CN(C)c1ccccc1/C=C/C=C1C(=O)NC(=S)NC1=O [DDD00197337],10 to 31.6

row,Compound,IC50 [µM]
1,CN1C(=O)C(=C/C=C/c2ccccc2N(C)C)C(=O)N(C)C1=O [DDD00197338],1 to 10
2,O=C1NC(=S)NC(=O)C1=C/C=C/c1cccc(F)c1 [DDD00197339],1 to 10
3,CCN1C(=O)NC(=O)/C(=C\C=C\c2cccc(N(C)C)c2)C1=O [DDD00197341],1 to 10
4,CCN1C(=O)C(=C/C=C/c2ccc(N(C)C)cc2)C(=O)N(CC)C1=S [DDD00197342],31.6 to 100
5,CN1C(=O)C(=C/C=C/c2c(F)cccc2F)C(=O)N(C)C1=O [DDD00197343],1 to 10
6,CCN1C(=O)NC(=O)/C(=C\C=C\c2ccccc2N(C)C)C1=O [DDD00197344],1 to 10
7,CCN1C(=O)C(=C/C=C/c2c(F)cccc2F)C(=O)N(CC)C1=S [DDD00197345],31.6 to 100
8,CN1C(=O)C(=C/C=C/c2cccc(N(C)C)c2)C(=O)N(C)C1=O [DDD00197346],1 to 10
9,CCN1C(=O)NC(=O)/C(=C\C=C\c2cccc(F)c2)C1=O [DDD00197347],1 to 10
10,N#Cc1ccccc1/C=C/C=C1C(=O)NC(=O)NC1=O [DDD00197348],1 to 10
11,O=C1NC(=S)NC(=O)C1=C/C=C/c1ccccc1F [DDD00197349],1 to 10
12,CCN1C(=O)C(=C/C=C/c2ccccc2OC)C(=O)N(CC)C1=S [DDD00197350],10 to 31.6
13,CN1C(=O)C(=C/C=C/c2cccc(F)c2)C(=O)N(C)C1=O [DDD00197351],1 to 10
14,CN1C(=O)C(C(C)(O)/C=C/c2ccccc2)C(=O)N(C)C1=O (stereo not shown) [DDD00197352],> 100
15,CCN1C(=O)/C(=C/C=C/c2cccc(F)c2)C(=O)NC1=S [DDD00197354],10 to 31.6
16,CCN1C(=O)/C(=C/C=C/c2ccccc2OC)C(=O)NC1=S [DDD00197355],1 to 10
17,CN(C)c1ccccc1/C=C/C=C1C(=O)NC(=O)NC1=O [DDD00197357],1 to 10
18,Cn1cc(/C=C/c2ccccc2)c(=O)n(C)c1=O [DDD00197671],> 100
19,CN1C(=O)C(=C/C=C/C2CCCCC2)C(=O)N(C)C1=O [DDD00197709],10 to 31.6
